Results taken from US6833146B2, “Powered beverage mix with rapidly dissolving calcium” (Unilab Pharmatech, Ltd., priority 2002, dated 2004).
Blank lines part the entries; values can stand above or below the compound they belong to.

Columns and labels:
[1] = Simulated Hand Stirring Test (calcium sedimentation after stirring a unit dose in water); type: physicochemical; conditions: for calcium base reacts fast enough with the acid for minimal calcium sedimentation: with appropriate amount of sugar, stirred for less than about 60 seconds by hand; for Sweetener/calcium ratio to pass 60-second Simulated Hand Stirring Test: calcium hydroxide providing 300 mg calcium per unit dose, citric acid 0.96 gram per unit dose, 200 ml water at 25° C., 200 rpm; for Acid required/Dose: citric acid to pass 60-second test
Description: A magnetic stir bar (9.5×50.8 mm, catalogue no. 58948-980, VWR Spinbar®, USA) is placed in a 250-ml Pyrex® beaker (catalogue no. 1000-250, Corning, USA) to which 200 ml of water at 25° C. is added. The beaker is placed on top of a digital magnetic stirrer (Cole Parmer, USA) and the speed set at 200 rpm. A unit dose of a powdered mix is then added to the water and stirred for a given period of time, after which the beaker is removed and calcium sedimentation evaluated on a 1-10 scale, with 1 denoting no visible calcium sedimentation. A rating of 2 denoting very minimal calcium sedimentation, which is visually acceptable, is set as the minimum dissolution criterion.
Hereafter, this test will be referred to as the “Simulated Hand Stirring Test”. When the stirring time is 60 seconds, the test is referred to as the “60-second Simulated Hand Stirring Test”.

[2] = cited from earlier work
Solubility in water = type: physicochemical

Structure (SMILES): [Ca+2].[OH-].[OH-] [Calcium hydroxide]
calcium base reacts fast enough with the acid for minimal calcium sedimentation [1]: will react fast enough

Structure (SMILES): [O]=[Ca] [Calcium oxide, reference compound]
calcium base reacts fast enough with the acid for minimal calcium sedimentation [1]: may not react fast enough

Structure (SMILES): O=C(CO)[C@@H](O)[C@H](O)[C@H](O)CO [Fructose]
Sweetener/calcium ratio to pass 60-second Simulated Hand Stirring Test [1]: 45
Acid required/Dose ([1]; fructose On Mesh 20 (> 841 micron), 22 g fructose/dose, 500 mg calcium/dose): 2.0
Acid required/Dose ([1]; fructose On Mesh 20, 6 g fructose/dose, 150 mg calcium/dose): 0.5
Acid required/Dose ([1]; fructose On Mesh 20, 16 g fructose/dose, 300 mg calcium/dose): 1.0
Acid required/Dose ([1]; fructose Through mesh 40 (< 420 micron), 22 g fructose/dose, 500 mg calcium/dose): 2.0
Acid required/Dose ([1]; fructose Through mesh 40, 6 g fructose/dose, 150 mg calcium/dose): 0.5
Acid required/Dose ([1]; fructose Through mesh 40, 16 g fructose/dose, 300 mg calcium/dose): 1.0

Now from value to compound, other results behind:

calcium sedimentation with fumaric acid as the acid ([1]; 555 mg calcium hydroxide (300 mg calcium), 26 grams sucrose, fumaric acid at three times the stoichiometric amount): significant calcium sedimentation
times more soluble than calcium hydroxide (Solubility in water): about four
Structure (SMILES): O=C(O)/C=C/C(=O)O [Fumaric acid, reference compound]
solubility in water [2]: 0.63 gram per 100 ml of water

Sweetener/calcium ratio to pass 60-second Simulated Hand Stirring Test [1]: 95
Structure (SMILES): OC[C@@H](O)[C@@H](O)[C@H](O)[C@@H](O)CO [Sorbitol, reference compound]

Sweetener/calcium ratio to pass 60-second Simulated Hand Stirring Test [1]: 60
Structure (SMILES): OC[C@H]1O[C@@](CO)(O[C@H]2O[C@H](CO)[C@@H](O)[C@H](O)[C@H]2O)[C@@H](O)[C@@H]1O [Sucrose]

times more soluble than calcium hydroxide (Solubility in water): about 300 times
Structure (SMILES): O=C(O)CC(O)C(=O)O (stereo not drawn) [malic acid]
